Test results as given in patent US11110195B2, “Esculentin 1a derivatives and uses thereof” (University of Houston System, priority 2013, dated 2021).
In brackets after ≈: the same amount, converted by molar mass. Read-outs that look alike come from different tables or passages of the source. Residues, ends and D or L forms follow the SMILES beside them.

What was measured:
Staphylococcus hominis = Staphylococcus hominis n. 1 ME, clinical ocular isolate
Description: (§1) To determine the minimum inhibitory concentration (MIC) of Esc-1a(1-21)NH2 that causes total inhibition of microbial growth against Pseudomonas aeruginosa and Staphylococcal strains, the following experiment (using P. aeruginosa ATCC 19660 as an example) was performed. MIC was determined using the 96 well micro-plate dilution assay. The test was performed in triplicate wells and Esc-1a(1-21)NH2 was serially diluted to give concentrations of 0.125 μM to 64 μM.
(§2) Day 1: Picked a colony from a P. aeruginosa ATCC19660 streak plate, inoculated in to nutrient broth and incubated overnight at 37° C. with shaking (250 rpm) Day 2 Steps: Removed 100 μl of the bacterial suspension and inoculated into 50 ml of fresh broth. Incubated for 2.5 hours with vigorous shaking (250 rpm) at 37° C. to achieve mid-log phase growth. Centrifuged the 50 ml culture at 3100 g for 10 minutes; discarded supernatant and resuspended pellet in 2 ml Muller-Hinton broth (MHB). Adjusted the optical density (OD) of the bacterial culture to 0.2 at 620 nm (corresponds to ˜10^7 CFU/ml) and diluted to 2×10^6 CFU/ml using MHB media. Thawed an aliquot of the peptide on ice. Pipetted 90 μl of MHB into wells A1, B1 and C1 and 50 μl of MHB media into A2-C2 through A12-C12. Added 10 μl of Esc-1a(1-21)NH2 into wells A1, B1 and C1 and performed serial twofold dilutions of peptide in a volume of 50 μl from column 1 to column 10 (i.e. transferred 50 μl from A1, B1 and C1 to A2, B2 and C2 and so on till A10-C10). […] Pipetted 50 μl of the diluted P. aeruginosa ATCC 19660 in to each well using a multichannel pipette (final concentration was 1×10^5 bacteria in 100 μl volume). Wrapped the plate using parafilm to prevent evaporation and incubated in a shaker incubator (150 rpm) at 37° C. for 18-24 h.
(§3) Day 3 Steps: Read the plate using the spectrophotometer at 590 nm after examining the plates visually for turbidity. Generated spot plates to check for bacterial growth by plating out the contents of the first 3 wells showing no visible growth of bacteria onto MHA plates. Plated dilutions in duplicate and incubated the plates at 37° C. for 18 hr.
(§4) Day 4: Counted the number of colonies on the agar plates and plotted the data.

Staphylococcus aureus = Staphylococcus aureus n. 6 ME, clinical ocular isolate
Description: as §1, §2, §3, §4

Pseudomonas aeruginosa = system: Pseudomonas aeruginosa
Description: as §1, §2, §3, §4

[1] = system: Staphylococcus epidermidis; conditions: Staphylococcus epidermidis n. 21 (326) ME, clinical ocular isolate
Description: as §1, §2, §3, §4

[2] = system: A549 lung epithelial cells; assay: Wound healing assay, A549 lung epithelial cells; assay type: cell-based, human; conditions: A549 monolayer
Description: The percentage of cell-covered area at each time point is reported on the y-axis. Control (Ctrl) represents cells not treated with the peptides. All data are the mean of at least three independent experiments ±SEM. […] Both peptides were able to stimulate the closure of the gap produced in the monolayer of A549 cells, with the optimal concentration allowing the almost complete coverage of the wound field equal to 10 μM (for the wild type peptide, FIG. 13A) or 4 μM (for the diastereomer, FIG. 13B) within approximately 24 hours or 20 hours, respectively.
As shown in FIGS. 13A-13B, Esc-1a(1-21)NH2 and its diastereomer both stimulated wound closure although at concentrations much higher than were required to induce a similar effect in human corneal epithelial cells. This may reflect cell specific differences.

[3] = system: TNF-α secretion from LPS-stimulated RAW264.7 macrophages; assay: Anti-endotoxin activity: TNF-α release from LPS-stimulated macrophages (ELISA); assay type: cell-based, murine; conditions: LPS 10 ng/ml, 4 hours
Description: RAW264.7 cells were stimulated with LPS (10 ng/ml) derived from P. aeruginosa 10 in the presence of 1, 5, 10 and 20 μM Esc-1a(1-21)NH2 for 4 hours at 37° C. and 5% CO2. The percentage of inhibition of TNF-α release was normalized to that of macrophages stimulated with LPS without peptide (0% inhibition).
Macrophages (Raw 264.7) were cultured overnight in 96-well plates (1×10^5 cells/well) in DMEM supplemented with 2 mM L-glutamine, 1 mM sodium pyruvate, non-essential amino acids (NEAA), and 10% FBS. The medium was then removed and replaced with fresh medium containing LPS (10 ng/ml final concentration) and the peptide at different concentrations. Cells were incubated at 37° C. for 4 h, after which the medium was collected and TNF-α concentration in the samples was evaluated using a mouse TNF-α enzyme-linked immunosorbant assay kit according to the manufacturer's protocol (ELISA, Biosource). Cells that were stimulated with LPS alone, and untreated cells served as controls. All experiments were done in triplicate.

## CC[C@H](C)[C@H](NC(=O)CN)C(=O)N[C@@H](Cc1ccccc1)C(=O)N[C@@H](CO)C(=O)N[C@@H](CCCCN)C(=O)N[C@@H](CC(C)C)C(=O)N[C@@H](C)C(=O)NCC(=O)N[C@@H](CCCCN)C(=O)N[C@@H](CCCCN)C(=O)N[C@H](C(=O)N[C@@H](CCCCN)C(=O)N[C@@H](CC(N)=O)C(=O)N[C@@H](CC(C)C)C(=O)N[C@@H](CC(C)C)C(=O)N[C@H](C(=O)N[C@@H](CO)C(=O)NCC(=O)N[C@@H](CC(C)C)C(=O)N[C@@H](CCCCN)C(=O)NCC(N)=O)[C@@H](C)CC)[C@@H](C)CC [Esc-1a(1-21)NH2] (H-GIFSKLAGKKIKNLLISGLKG-NH2; N-terminus assumed)
Staphylococcus hominis
  MIC: 1 µM (≈ 2.18 µg/mL)
Staphylococcus aureus
  MIC: 64 µM (≈ 140 µg/mL)
Pseudomonas aeruginosa; P. aeruginosa clinical isolates
  MIC values range: 2 to 8 µM
Pseudomonas aeruginosa; Pseudomonas aeruginosa 1 Rm, clinical ocular isolate
  MIC: 4 µM (≈ 8.74 µg/mL)
Pseudomonas aeruginosa; Pseudomonas aeruginosa ATCC 19660, reference strain
  MIC: 16 µM (≈ 35 µg/mL)
Pseudomonas aeruginosa; Pseudomonas aeruginosa R1, clinical ocular isolate
  MIC: 2 µM (≈ 4.37 µg/mL)
Pseudomonas aeruginosa; Pseudomonas aeruginosa n. 2 ME, clinical ocular isolate
  MIC: 8 µM (≈ 17.5 µg/mL)
Pseudomonas aeruginosa; Pseudomonas aeruginosa n. 3, clinical ocular isolate
  MIC: 8 µM (≈ 17.5 µg/mL)
[1]
  MIC: 8 µM (≈ 17.5 µg/mL)
[2]
  optimal concentration allowing almost complete coverage of the wound field: 10 µM
[2]; at optimal concentration
  time to almost complete coverage of the wound field: approximately 24 hours
[3]; 10 μM peptide
  inhibition of TNF-α secretion: ~80%
[3]; 20 μM peptide
  inhibition of TNF-α secretion: ~90%
